Laboratory results taken from EP2487185A1, “Hexapeptide with improved activity in the repair of cellular DNA of dermal cells” (Clinuvel Pharmaceuticals Limited, priority 2011, dated 2012).
Non-standard residues stand in square brackets, D forms with d. Nle = CCCC[C@H](N)C(=O)O

Columns and labels:
melanocytic strain 1505b = assay: UV-induced generation of hydrogen peroxide (luminol luminescence); assay type: cell-based, human; settings: for UV-induced hydrogen peroxide generation: strain 1505b, 105 mJ/cm^2 UV, 0, 30 and 45 minutes after UV
Source text: With reference to Figs. 10 and 11, melanocytes were irradiated with a bank of FS 20 lamps, with 75% emission in the UVB, and 25% emission in the UVA spectra, with peak emission at 313 nm wavelength. Any emission of UVC rays from the UV source (FS 20 lamps) was blocked by Kodacel filter. Prior to irradiation, the culture medium was replaced by PBS, which was removed after UV exposure, and fresh medium added.
Melanocytes were irradiated with 105 mJ/cm^2 UV, and treated immediately while in PBS with 0, 1 nM α-MSH or 1 nM CUV9900. Generation of hydrogen peroxide, representative of reactive oxygen species (ROS), was determined by measuring the luminescence of luminol at 0, 30, and 45 min after UV exposure. Triplicate dishes were included in each group, and duplicate samples from each dish were used for measurement of hydrogen peroxide at each time point. Each data point represents the mean of 6 determinations/group ±S.E.

melanocyte strain 1513c = assay: Cell proliferation as a measure of stability; assay type: cell-based, human; settings: for Cell proliferation, column 2: column 2, not defined; for Cell proliferation, Mean [1+2]: STRAIN 1513c, mean over experiments [1] and [2]
Procedure: With continued reference to Figs. 7, 8 and 9, to determine the stability of CUV9900 versus that of NDP-MSH and α-MSH, melanocytes were treated with 1 nM of each peptide, namely with CUV9900, NDP-MSH and α-MSH, for a total of 6 days, or with 1 nM peptides that were incubated for 5 hours at 37 °C prior to addition to the cultures, every other day, for a total of 6 days. Tyrosinase activity was measured at the end of treatment. In the experiments, cell number represents the mean percent of control of 3 determinations/ group ±SE, and tyrosinase activity data represent the mean percent of control of 6 determinations ±S.E. It should be noted that for the sake of reproducibility the experiment of strain 1513c of Fig. 9 was performed once more 6 months later than the experiment of Fig. 7.
Peptides were incubated at 37 degrees Celsius for 5 hours and then split into groups. Cell proliferation was a measure of stability, whereby the experiments on strain 1513c were divided in period 1 and 2 under standard conditions.

human melanocytes = assay: DNA damage as measured by 8-oxo-dG (FITC-conjugated 8-oxo-dG antibody immunofluorescence); assay type: cell-based; settings: for 8-oxo-dG, Arbitrary units: 37 Celsius, mean fluorescence intensity
Source text: DNA damage of cultured melanocytes following UV irradiation leads to consistent levels of photoproducts such as 8-oxo-dG. It is well established in the art (dermal carcinogenesis) that 8-oxodG is a major form of UV induced oxidative DNA damage, which results from the generation of reactive oxygen species (ROS). The induction of 8-oxodG by 8-oxo-dGTP can be inhibited by pyrophosphohydrolases (8-[…]) that convert it to 8-oxo-dGMP. To elucidate the involvement of 8-oxo-[…] in carcinogenesis, an assay of the 8-oxo-[…] activity was used (Sigma Chemical Co. (USA) as well as a conjugated 8-oxo-dG antibodies (OxoDNA Assay Kit; Calbiochem/EMD Biosciences). Melanocytes were plated onto coverslips, and treated 48 h thereafter for 4 days prior to, and immediately after irradiation with 0 or 105 mJ/cm^2 UV, 0.1-10.0 nM α-MSH, with 0 (control) or 0.1-10.0 nM α-MSH, or 0.001-10 nM NDP-MSH or 0.001-10.0 nM CUV 9900. Two hours after UV exposure, cells were fixated with 4% paraformaldehyde in PBS, hydrated in increasing concentrations of cold methanol, and permeabilized in 99% methanol for 30 min at 4 °C. Melanocytes were incubated in blocking solution at 37 °C for 1 h and then with FITC-conjugated 8-oxo-dG antibody, or mouse IgG as a negative control, at 37 °C for 1 h. The IgG controls were then incubated with FITC-conjugated anti-mouse antibody. Immunofluorescence was detected using a microscope with FITC filters. Data were expressed as the mean fluorescence intensity ±S.E., determined using the densitometry values from 6-8 randomly obtained images, using the computer assisted program Alpha Inotech Imaging System and the AlphaEase FC StandAlone Software.

melanocyte strain 1505b = assay: Cell proliferation as a measure of stability; assay type: cell-based, human; settings: for Cell proliferation, column 2: Table 3, 1nM, column 2, not defined; for Cell proliferation, Mean: Table 3, mean of columns 1-3
Melanocytes = assay: DNA damage as measured by cyclobutane pyrimidine dimers (CPD), flow cytometry; assay type: cell-based, human; settings: 48 h after 105 mJ/cm^2 UV; 10 nM α-MSH, 1 nM NDP-MSH or 1 nM CUV9900, 4 days prior to and 2 days after UV
Procedure: Cyclobutane pyrimidine dimers (CPD), the major determinant of UV induced DNA photoproducts, were detected using flow cytometry analysis.
Melanocytes were pretreated with 0 (control), 10 nM α-MSH or 1 nM NDP-MSH or 1 nM CUV9900 for 4 days prior to, and 2 days after exposure to 105 mJ/cm^2 UV, harvested 48 hours post irradiation, fixated with 70% ethanol, the DNA denatured with 1N HCl/0.2 mg/ml pepsin, then renaturated with sodium tetraborate. Melanocytes were blocked and incubated overnight at 4°C with the anti-CPD antibody (diluted 1:500; TDM-2 clone), then with goat anti-mouse IgG Alexa Fluor 488 (Invitrogen, Carlsbad CA) for 1 hour, and finally resuspended in PBS containing RNase A and propidium iodide. Melanocytes were analyzed on a Coulter EPICS XL flow cytometer (Beckman Coulter) using a 488nm argon ion laser A 525 band pass filter was used for the Alexa fluor 488 and a 620 band pass filter for the propidium iodide.

melanocyte strain 102b = assay: Tyrosinase activity, dose-response, 6 days treatment; assay type: cell-based, human
Procedure: Cell numbers as well as tyrosinase activity were then determined. Tyrosinase activity was calculated first at activity/10^6 cells, and then as % of control. Twenty-four hours prior the end of the experiment, melanocytes received ^3H-tyrosinase (0.7 µCi/ml medium). The conditioned medium from each dish was collected to be assayed for tyrosinase activity, and the cell numbers were determined using a Coulter Counter. Triplicate dishes were included in each group, and duplicate samples from each dish were assayed for tyrosinase activity. Each data point is the mean percent of control of 6 determinations/group ±S.E.

[1] = STRAIN 1513c [1], Table 1, mean of columns 1-3
[2] = STRAIN 1513c [2], Table 2, mean
[3] = 75%UVB 25% UVA, 105 mJ/cm^2, 2 h after UV

| minimal effective dose (tyrosinase activity) (melanocyte strain 102b; 6 days treatment) [pM] | concentration achieving equal maximal stimulation of tyrosinase (melanocyte strain 102b; 6 days treatment) [nM] | Substance | reducing the generation of hydrogen peroxide, comparison to NDP-MSH and MSH (melanocytic strain 1505b; at 45 minutes after UV) | hydrogen peroxide generation, comparison (melanocytic strain 1505b; at 45 minutes after irradiation, 1 nM, strain not given) | UV-induced hydrogen peroxide generation (melanocytic strain 1505b; 1 nM) | Cell proliferation, column 2 (melanocyte strain 1513c; STRAIN 1513c [1], Table 1, 1nM) | Cell proliferation, Mean (melanocyte strain 1513c; [1]) | Cell proliferation, column 2 (melanocyte strain 1513c; STRAIN 1513c [2], Table 2) | Cell proliferation, Mean (melanocyte strain 1513c; [2]) | Cell proliferation, Mean [1+2] (melanocyte strain 1513c; Table 2) | less damage than UV alone (8-oxo-dG) (human melanocytes) [%] | 8-oxo-dG, Arbitrary units (human melanocytes; [3]) | 8-oxo-dG, Arbitrary units (human melanocytes; Source None (no UV irradiation)) [a.u.] | Cell proliferation, column 2 (melanocyte strain 1505b) | Cell proliferation, Mean (melanocyte strain 1505b) | Absolute values of CPD products (CPD median fluorescence intensity) (Melanocytes) | stimulation of tyrosinase activity, comparison with NDP-MSH (melanocyte strain 102b; subnanomolar concentrations) |
| --- | --- | --- | --- | --- | --- | --- | --- | --- | --- | --- | --- | --- | --- | --- | --- | --- | --- |
| 1 |  | Ac-Nle-Glu His-D-Phe-Arg-Trp-NH2 (Ac-[Nle]EH[dF]RW-NH2; SMILES CCCC[C@H](NC(C)=O)C(=O)N[C@@H](CCC(=O)O)C(=O)N[C@@H](Cc1c[nH]cn1)C(=O)N[C@H](Cc1ccccc1)C(=O)N[C@@H](CCCNC(=N)N)C(=O)N[C@@H](Cc1c[nH]c2ccccc12)C(N)=O) [CUV9900, hexapeptide, alpha-MSH analogue] | most effective at reducing the generation of hydrogen peroxide | lower hydrogen peroxide generation in comparison with both NDP-MSH and MSH | significant reduction of UV-induced hydrogen peroxide generation | 108 % of control | 110.7 % of control | 119.8 % of control | 119.9 % of control | 114.3 % of control | 120 | 38 a.u. | 30 | 120 % of control | 115.7 % of control | ~11.55 | greater stimulation of tyrosinase activity than NDP-MSH |
| 1 | 1 | Ac-Ser-Tyr-Ser-Nle-Glu-His-D-Phe-Arg-Trp-Gly-Lys-Pro-Val-NH2 [NDP-MSH, reference compound] |  |  | significant reduction of UV-induced hydrogen peroxide generation | 115 % of control | 112.7 % of control | 117.5 % of control | 115.0 % of control | 113.6 % of control |  | 39-40 a.u. |  | 105 % of control | 105.0 % of control | ~12.5 |  |
